In ChEMBL document CHEMBL3872220, “Amphiphilic xanthones as a potent chemical entity of anti-mycobacterial agents with membrane-targeting properties” (Eur J Med Chem, 2016):
Values after ≈ are worked out from the molar mass of the structure shown.

Assays:
Type in all cases: functional
[1] = test system: Mycobacterium tuberculosis; experiment: Antimycobacterial activity against rifampicin, streptomycin and ethambutol resistant Mycobacterium tuberculosis clinical isolate 01;005 assessed as reduction in 2 log10 bacterial colonies measured after 14 to 21 days by agar dilution method
[2] = test system: Mycobacterium tuberculosis; experiment: Antimycobacterial activity against isoniazid, streptomycin and ethambutol resistant Mycobacterium tuberculosis clinical isolate 01;104 assessed as reduction in 2 log10 bacterial colonies measured after 14 to 21 days by agar dilution method
[3] = test system: Mycobacterium tuberculosis variant bovis BCG; experiment: Bactericidal activity against Mycobacterium bovis BCG ATCC 35734 assessed as log reduction in bacterial colonies at 2 times MIC measured at 9 hrs by time-kill assay

Question: `COc1c(OCCCCN2CCOCC2)cc2oc3cc(OCCCCN4CCOCC4)c(CC=C(C)C)c(O)c3c(=O)c2c1CC=C(C)C` was tested. Which MIC [1] did it give?
Answer: 8 µg/mL (≈ 11.5 µM)

Question: And the MIC [2]?
Answer: 4 µg/mL (≈ 5.77 µM)

Question: For `CCN(CC)CCCCOc1cc2oc3cc(OCCCCN(CC)CC)c(OC)c(CC=C(C)C)c3c(=O)c2c(O)c1CC=C(C)C`, which MIC [1] is on record?
Answer: 8 µg/mL (≈ 12 µM)

Question: What about the MIC [2] of the same compound?
Answer: 4 µg/mL (≈ 6.02 µM)

Question: Which Activity [3] does the source give for `CCCN(CCC)CCCCOc1cc2oc3cc(OCCCCN(CCC)CCC)c(OC)c(CC=C(C)C)c3c(=O)c2c(O)c1CC=C(C)C` here?
Answer: 2.8
